Data published in patent US5792780A, “Azole compounds, their production and use” (Takeda Chemical Industries, Ltd., priority 1993, dated 1998).

How the values were obtained:
Candida albicans TA = experiment: protective effect against experimental infection in mice (survival rate 7 days after infection); format: in vivo, Crj:CDF1 mice; conditions: po, 168 h, survival 7 days after infection
Procedure: (§1) Test Method: Five-week-old Crj:CDF1 mice were inoculated with the minimum lethal dose of Candida albicans TA intravenously. The test compound was suspended in a solution of 0.2% or 0.5% sodium carboxymethylcellulose (CMC). The suspension was administered orally once immediately after infection. The activity was expressed in terms of ED50 values calculated by the Reed and Muench method from the survival rate 7 days after infection.
as §1, with “of” for “of 0.2% or”

[1] = test system: Candida albicans IFO 0583; experiment: growth inhibition zone, paper disc agar diffusion; format: cell-based; conditions: IFO0583, 48 h, Table 6, Medium A, 1000 μg/ml, 28° C., two-day culture, read-out: Diameter of growth-inhibition zone
Procedure: Evaluation of the antifungal activities of the compound of the present invention was conducted by the following method: a sheet of filter paper disc (manufactured by Toyo Seisakusho, 8 mm in diameter) soaked in a 1000 μg/ml solution of a compound of the present invention in methanol was placed on an agar plate containing various fungi, which was incubated at 28° C. for two days, and the diameter of the growth inhibition zone around the filter paper disc was measured. The following culture media were used:
A: yeast nitrogen base agar medium (pH 7.0)
B: peptone-yeast extract-glucose agar medium (pH 7.0)

[2] = Table 8, P.O. once immediately after infection, 0.5% CMC
[3] = Table 7, P.O. once immediately after infection, 0.2% CMC
[4] = Table 9, compounds of formula (VI), P.O. once immediately after infection, 0.5% CMC

`C[C@@H](N1CCN(c2ccc(OC(F)(F)C(F)F)cc2)C1=O)[C@](O)(Cn1cncn1)c1ccc(F)cc1` [Compound 18, 1-[(1R,2R)-2-(4-fluorophenyl)-2-hydroxy-1-methyl-3-(1H-1,2,4-triazol-1-yl)propyl]-3-[4-(1,1,2,2-tetrafluoroethoxy)phenyl]-2-imidazolidinone] gave an ED50 (Candida albicans TA; [2]) of 0.35 mg/kg.
`C[C@@H](N1CCN(c2ccc(OCC(F)(F)C(F)(F)F)cc2)C1=O)[C@](O)(Cn1cncn1)c1ccc(F)cc1F` [Compound 8, 1-[(1R,2R)-2-(2,4-difluorophenyl)-2-hydroxy-1-methyl-3-(1H-1,2,4-triazol-1-yl)propyl]-3-[4-(2,2,3,3,3-pentafluoropropoxy)phenyl]-2-imidazolidinone] was tested, and the ED50 (Candida albicans TA; [3]) was 2 mg/kg and the zone of inhibition at 1000 µg/mL [1] was 28 mm.
`C[C@@H](N1CCN(c2ccc(OCC(F)(F)C(F)F)cc2)C1=O)[C@](O)(Cn1cncn1)c1ccccc1F` [Compound 17, 1-[(1R,2R)-2-(2-fluorophenyl)-2-hydroxy-1-methyl-3-(1H-1,2,4-triazol-1-yl)propyl]-3-[4-(2,2,3,3-tetrafluoropropoxy)phenyl]-2-imidazolidinone] gave an ED50 (Candida albicans TA; [2]) of 0.65 mg/kg.
Work on `C[C@@H](N1CCN(c2ccc(OC(F)(F)C(F)F)cc2)C1=O)[C@](O)(Cn1cncn1)c1ccccc1F` [Compound 16, 1-[(1R,2R)-2-(2-fluorophenyl)-2-hydroxy-1-methyl-3-(1H-1,2,4-triazol-1-yl)propyl]-3-[4-(1,1,2,2-tetrafluoroethoxy)phenyl]-2-imidazolidinone] yielded an ED50 (Candida albicans TA; [2]) of 0.35 mg/kg.
For `C[C@@H](N1CCN(c2ccc(OCC(F)(F)F)cc2)C1=O)[C@](O)(Cn1cncn1)c1ccc(F)cc1F` [Compound 9, 1-[(1R,2R)-2-(2,4-difluorophenyl)-2-hydroxy-1-methyl-3-(1H-1,2,4-triazol-1-yl)propyl]-3-[4-(2,2,2-trifluoroethoxy)phenyl]-2-imidazolidinone], the ED50 (Candida albicans TA; [3]) was 0.65 mg/kg and the zone of inhibition at 1000 µg/mL [1] was 41 mm.
`C[C@@H](N1CC(=O)N(c2ccc(F)cc2F)C1=O)[C@](O)(Cn1cncn1)c1ccc(F)cc1F` [Compound 3, 1-[(1R,2R)-2-(2,4-difluorophenyl)-2-hydroxy-1-methyl-3-(1H-1,2,4-triazol-1-yl)propyl]-3-(2,4-difluorophenyl)-2,4-imidazolidinedione] was tested, and the ED50 (Candida albicans TA; [3]) was 2 mg/kg and the zone of inhibition at 1000 µg/mL [1] was 41 mm.
For `C[C@@H](N1CC(=O)N(c2ccc(OC(F)(F)C(F)F)cc2)CC1=O)[C@](O)(Cn1cncn1)c1ccc(F)cc1F` [Compound 12, 1-[(1R,2R)-2-(2,4-difluorophenyl)-2-hydroxy-1-methyl-3-(1H-1,2,4-triazol-1-yl)propyl]-4-[4-(1,1,2,2-tetrafluoroethoxy)phenyl]-2,5-peperazinedione], the ED50 (Candida albicans TA; [2]) was 2.8 mg/kg.
`C[C@@H](N1CC(=O)N(c2ccc(OCC(F)(F)C(F)F)cc2)CC1=O)[C@](O)(Cn1cncn1)c1ccc(F)cc1F` [Compound 11, 1-[(1R,2R)-2-(2,4-difluorophenyl)-2-hydroxy-1-methyl-3-(1H-1,2,4-triazol-1-yl)propyl]-4-[4-(2,2,3,3-tetrafluoropropoxy)phenyl]-2,5-piperazinedione] gave a zone of inhibition at 1000 µg/mL [1] of 31 mm.
Compound `C[C@@H](N1CCN(c2ccc(Cl)cc2)C1=O)[C@](O)(Cn1cncn1)c1ccc(F)cc1F` [Compound 10, 1-(4-chlorophenyl)-3-[(1R,2R)-2-(2,4-difluorophenyl)-2-hydroxy-1-methyl-3-(1H-1,2,4-triazol-1-yl)propyl]-2-imidazolidinone] has an ED50 (Candida albicans TA; [3]) of 1.8 mg/kg and a zone of inhibition at 1000 µg/mL [1] of 42 mm.
Work on `C[C@@H](N1CCN(c2ccc(OCC(F)(F)C(F)F)cc2)C1=O)[C@](O)(Cn1cncn1)c1ccc(F)cc1F` [Compound 6, 1-[(1R,2R)-2-(2,4-difluorophenyl)-2-hydroxy-1-methyl-3-(1H-1,2,4-triazol-1-yl)propyl]-3-[4-(2,2,3,3-tetrafluoropropoxy)phenyl]-2-imidazolidinone] yielded an ED50 (Candida albicans TA; [2]) of 0.71 mg/kg and a zone of inhibition at 1000 µg/mL [1] of 36 mm.
`C[C@@H](N1CCN(c2ccc(F)cc2)C1=O)[C@](O)(Cn1cncn1)c1ccc(F)cc1F` [Compound 5, 1-[(1R,2R)-2-(2,4-difluorophenyl)-2-hydroxy-1-methyl-3-(1H-1,2,4-triazol-1-yl)propyl]-3-(4-fluorophenyl)-2-imidazolidinone] was tested, and the zone of inhibition at 1000 µg/mL [1] was 47 mm.
`C[C@@H](n1ccn(-c2ccc(OCC(F)(F)C(F)F)cc2)c1=O)[C@](O)(Cn1cncn1)c1ccc(F)cc1` [Reference Example 46, 1-[(1R,2R)-2-(4-fluorophenyl)-2-hydroxy-1-methyl-3-(1H-1,2,4-triazol-1-yl)propyl]-3-[4-(2,2,3,3-tetrafluoropropoxy)phenyl]-2(1H,3H)-imidazolone] showed an ED50 (Candida albicans TA; [4]) of 0.32 mg/kg.
`C[C@@H](N1CCN(c2ccc(OC(F)(F)C(F)F)cc2)C(=O)C1=O)[C@](O)(Cn1cncn1)c1ccc(F)cc1F` [Compound 15, 1-[(1R,2R)-2-(2,4-difluorophenyl)-2-hydroxy-1-methyl-3-(1H-1,2,4-triazol-1-yl)propyl]-4-[4-(1,1,2,2-tetrafluoroethoxy)phenyl]-2,3-piperazinedione] showed an ED50 (Candida albicans TA; [2]) of 2 mg/kg.
In the case of `C[C@@H](n1ccn(-c2ccc(OC(F)(F)C(F)F)cc2)c1=O)[C@](O)(Cn1cncn1)c1ccccc1F` [Reference Example 49, 1-[(1R,2R)-2-(2-fluorophenyl)-2-hydroxy-1-methyl-3-(1H-1,2,4-triazol-1-yl)propyl]-3-[4-(1,1,2,2-tetrafluoroethoxy)phenyl]-2(1H,3H)-imidazolone], the ED50 (Candida albicans TA; [4]) was 0.18 mg/kg.
`C[C@@H](n1ccn(-c2ccc(OCC(F)(F)C(F)F)cc2)c1=O)[C@](O)(Cn1cncn1)c1ccccc1F` [Reference Example 50, 1-[(1R,2R)-2-(2-fluorophenyl)-2-hydroxy-1-methyl-3-(1H-1,2,4-triazol-1-yl)propyl]-3-[4-(2,2,3,3-tetrafluoropropoxy)phenyl]-2(1H,3H)-imidazolone] was tested, and the ED50 (Candida albicans TA; [4]) was 0.32 mg/kg.
`C[C@@H](N1CCN(c2ccc(OCC(F)(F)C(F)F)cc2)C1=O)[C@](O)(Cn1cncn1)c1ccc(F)cc1` [Compound 19, 1-[(1R,2R)-2-(4-fluorophenyl)-2-hydroxy-1-methyl-3-(1H-1,2,4-triazol-1-yl)propyl]-3-[4-(2,2,3,3-tetrafluoropropoxy)phenyl]-2-imidazolidinone] gave an ED50 (Candida albicans TA; [2]) of 0.77 mg/kg.
`C[C@@H](n1ccn(-c2ccc(OC(F)(F)C(F)F)cc2)c1=O)[C@](O)(Cn1cncn1)c1ccc(F)cc1` [Reference Example 45, 1-[(1R,2R)-2-(4-fluorophenyl)-2-hydroxy-1-methyl-3-(1H-1,2,4-triazol-1-yl)propyl]-3-[4-(1,1,2,2-tetrafluoroethoxy)phenyl]-2(1H,3H)-imidazolone] showed an ED50 (Candida albicans TA; [4]) of 0.18 mg/kg.
`C[C@@H](N1CCN(c2ccc(OCC(F)(F)C(F)F)cc2)C(=O)C1=O)[C@](O)(Cn1cncn1)c1ccc(F)cc1F` [Compound 14, 1-[(1R,2R)-2-(2,4-difluorophenyl)-2-hydroxy-1-methyl-3-(1H-1,2,4-triazol-1-yl)propyl]-4-[4-(2,2,3,3-tetrafluoropropoxy)phenyl]-2,3-piperazinedione] was tested, and the ED50 (Candida albicans TA; [2]) was 2.8 mg/kg.
Compound `C[C@@H](N1CCN(c2ccc(OC(F)(F)C(F)F)cc2)C1=O)[C@](O)(Cn1cncn1)c1ccc(F)cc1F` [Compound 7, 1-[(1R,2R)-2-(2,4-difluorophenyl)-2-hydroxy-1-methyl-3-(1H-1,2,4-triazol-1-yl)propyl]-3-[4-(1,1,2,2-tetrafluoroethoxy)phenyl]-2-imidazolidinone] has an ED50 (Candida albicans TA; [3]) of 0.65 mg/kg, an ED50 (Candida albicans TA; [2]) of 0.35 mg/kg and a zone of inhibition at 1000 µg/mL [1] of 35 mm.
